Results on 7 molecules are retold here after US20020016370A1 (priority 1998, published 2002).

In one series the test system is mice. The conditions noted are these: cited from earlier work.
The next series concerns TS patients. The conditions noted are these: Tourette's syndrome; cited from earlier work.
The subject of series [1] is vagotomized, pithed and artificially respired rats. As to the kind of experiment: Pithed rat: plasma catecholamine responses to sympathetic nerve stimulation. It is filed as in vivo. The settings on record: for change of plasma DA levels on sympathetic stimulation: from baseline.
The target of series [2] is hNET (norepinephrine transporter) (Homo sapiens, UniProt P23975). Description: [125]RTI-55 binding, HEK293 cell membranes. The conditions noted are these: HEK-hNET membranes.
The target in series [3] is T1, α1β1δε mouse muscle receptors (Mus musculus, UniProt P02716+P04756+P09690+P20782). As to the kind of experiment: Selectivity test on muscle receptors in oocytes. It counts as cell-based.
T1 sequence (P04756 21-457): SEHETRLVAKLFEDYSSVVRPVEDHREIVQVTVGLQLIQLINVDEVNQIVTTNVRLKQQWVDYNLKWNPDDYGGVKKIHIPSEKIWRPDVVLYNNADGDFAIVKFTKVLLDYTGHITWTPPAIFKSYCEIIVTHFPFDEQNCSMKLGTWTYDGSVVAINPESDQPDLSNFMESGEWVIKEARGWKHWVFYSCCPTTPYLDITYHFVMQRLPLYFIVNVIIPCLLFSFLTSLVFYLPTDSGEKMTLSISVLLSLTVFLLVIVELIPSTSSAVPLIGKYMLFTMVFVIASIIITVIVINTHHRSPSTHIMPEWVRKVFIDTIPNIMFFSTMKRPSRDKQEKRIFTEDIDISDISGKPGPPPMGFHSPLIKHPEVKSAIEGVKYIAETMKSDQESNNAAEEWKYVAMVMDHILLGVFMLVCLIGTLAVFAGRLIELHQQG
T1 sequence (P09690 24-501): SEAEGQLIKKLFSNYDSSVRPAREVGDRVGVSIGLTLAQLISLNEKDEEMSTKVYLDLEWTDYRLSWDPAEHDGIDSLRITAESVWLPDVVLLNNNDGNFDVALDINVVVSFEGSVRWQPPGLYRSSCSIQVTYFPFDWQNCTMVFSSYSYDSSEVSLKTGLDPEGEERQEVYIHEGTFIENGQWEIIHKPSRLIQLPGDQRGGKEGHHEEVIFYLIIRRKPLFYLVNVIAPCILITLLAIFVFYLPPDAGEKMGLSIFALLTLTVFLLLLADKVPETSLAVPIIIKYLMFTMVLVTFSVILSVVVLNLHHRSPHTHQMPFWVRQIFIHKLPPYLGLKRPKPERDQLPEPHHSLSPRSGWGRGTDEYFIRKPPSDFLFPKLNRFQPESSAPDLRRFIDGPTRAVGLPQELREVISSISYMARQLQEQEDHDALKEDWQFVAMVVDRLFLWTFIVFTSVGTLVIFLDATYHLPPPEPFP
T1 sequence (P02716 25-520): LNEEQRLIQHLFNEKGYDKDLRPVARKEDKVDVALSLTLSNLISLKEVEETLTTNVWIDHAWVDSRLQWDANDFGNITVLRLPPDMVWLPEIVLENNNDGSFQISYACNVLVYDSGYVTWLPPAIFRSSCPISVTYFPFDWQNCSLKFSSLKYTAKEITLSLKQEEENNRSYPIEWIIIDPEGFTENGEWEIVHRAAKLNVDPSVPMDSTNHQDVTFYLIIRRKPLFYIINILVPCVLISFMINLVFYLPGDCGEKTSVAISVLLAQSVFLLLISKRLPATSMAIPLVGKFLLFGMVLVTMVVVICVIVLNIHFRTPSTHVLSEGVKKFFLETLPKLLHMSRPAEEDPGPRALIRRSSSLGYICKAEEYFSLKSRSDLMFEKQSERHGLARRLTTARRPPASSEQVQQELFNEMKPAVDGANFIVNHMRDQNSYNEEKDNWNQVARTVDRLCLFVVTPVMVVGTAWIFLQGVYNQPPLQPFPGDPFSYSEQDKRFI
T1 sequence (P20782 21-493): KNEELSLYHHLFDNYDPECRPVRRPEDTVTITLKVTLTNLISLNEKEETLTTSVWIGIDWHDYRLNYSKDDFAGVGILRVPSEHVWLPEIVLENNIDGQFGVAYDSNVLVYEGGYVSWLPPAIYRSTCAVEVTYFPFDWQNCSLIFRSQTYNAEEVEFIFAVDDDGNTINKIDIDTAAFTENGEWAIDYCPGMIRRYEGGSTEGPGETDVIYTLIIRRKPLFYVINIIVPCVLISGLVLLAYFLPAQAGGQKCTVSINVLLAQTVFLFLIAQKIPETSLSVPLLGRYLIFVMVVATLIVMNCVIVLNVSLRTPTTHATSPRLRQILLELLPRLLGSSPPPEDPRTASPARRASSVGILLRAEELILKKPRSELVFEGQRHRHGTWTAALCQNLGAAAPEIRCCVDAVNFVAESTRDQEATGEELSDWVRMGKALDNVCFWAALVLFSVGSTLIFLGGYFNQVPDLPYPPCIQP
Description: For electrophysiology, oocyte recordings were made with an oocyte amplifier (e.g., Warner Instruments, Hamden, Conn., No. OC-725C) and recording chamber. […] A Mariotte flask filled with Ringer's solution was used to maintain a constant hydrostatic pressure for drug delivery and washes. Drugs were diluted in perfusion solution and loaded into a 2 ml loop at the terminus of the perfusion line. A bypass of the drug-loading loop allowed bath solution to flow continuously while the drug loop was loaded. The drug application was synchronized with data acquisition by using a 2-way electronic valve. […] Voltage electrodes were filled with 3M KCl and have resistances of 1-3MΩ. Oocytes with resting membrane potentials more positive than -30 mV were not used. […] All drug applications were separated by at least a 5 min wash period, longer if there is persisting drug effect. At the start of recording, all oocytes received two initial control applications of ACh. The second application of control ACh minimized the effects of rundown that occasionally occur after an initial ACh response. The second application of ACh also was used to normalize for the level of channel expression in each oocyte. To determine residual inhibitory effects, application of ACh with inhibitor or inhibitor alone was followed by another application of ACh alone and compared to the pre-application control ACh response. […]
Series [4] deals with hSERT (serotonin transporter) (Homo sapiens, UniProt P31645). As to the kind of experiment: [125]RTI-55 binding, HEK293 cell membranes. The settings on record: HEK-hSERT membranes.
A further series deals with T2, human α7 receptors (Homo sapiens, UniProt P36544).
T2 construct: expressed in transfected cells; host or cells: Xenopus laevis oocytes injected with cRNA
T2 sequence (P36544 23-502): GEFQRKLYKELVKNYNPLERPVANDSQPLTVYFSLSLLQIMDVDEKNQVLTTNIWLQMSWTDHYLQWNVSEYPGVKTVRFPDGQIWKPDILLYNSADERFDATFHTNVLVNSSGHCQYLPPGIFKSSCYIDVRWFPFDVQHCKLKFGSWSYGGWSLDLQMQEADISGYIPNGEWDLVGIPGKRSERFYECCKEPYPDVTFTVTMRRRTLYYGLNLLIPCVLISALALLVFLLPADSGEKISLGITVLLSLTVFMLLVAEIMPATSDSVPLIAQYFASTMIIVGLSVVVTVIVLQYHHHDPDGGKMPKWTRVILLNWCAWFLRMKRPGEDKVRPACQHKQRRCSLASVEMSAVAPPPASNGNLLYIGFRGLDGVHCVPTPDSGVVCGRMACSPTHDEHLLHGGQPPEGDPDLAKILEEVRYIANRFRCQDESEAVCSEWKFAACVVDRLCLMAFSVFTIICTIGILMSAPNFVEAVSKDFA
Description: Two-electrode voltage clamp, receptors expressed in Xenopus oocytes. It is filed as cell-based. (In general: In two-electrode clamp one electrode senses voltage and the other passes current.)

Series [5] has as its system Sprague-Dawley derived rats. Description: Prevention of sensitized locomotor stimulant response to nicotine. It is filed as in vivo, rat. The settings on record: pretreatment 7 days before nicotine; test on day 9.
A further series has as its target T3, human α3β4 receptors (Homo sapiens, UniProt P30926+P32297).
T3 construct: expressed in transfected cells; host or cells: Xenopus laevis oocytes injected with cRNA
Description: Two-electrode voltage clamp, receptors expressed in Xenopus oocytes. It is filed as cell-based.

In series [6] the test system is vagotomized, pithed and artificially respired rats. As to the kind of experiment: Pithed rat: cardiovascular responses to sympathetic nerve stimulation. It is filed as in vivo. The conditions noted are these: for increases in heart rate (δ HR): 2.2 Hz, highest dose, versus saline; for stimulation-induced increases in MAP: stimulation at 0.8 and 2.2 Hz, i.v. bolus.
The target in another series is T4, human α4β2 receptors (Homo sapiens, UniProt P17787+P43681).
T4 construct: expressed in transfected cells; host or cells: Xenopus laevis oocytes injected with cRNA
T4 sequence (P43681 29-627 limits assumed): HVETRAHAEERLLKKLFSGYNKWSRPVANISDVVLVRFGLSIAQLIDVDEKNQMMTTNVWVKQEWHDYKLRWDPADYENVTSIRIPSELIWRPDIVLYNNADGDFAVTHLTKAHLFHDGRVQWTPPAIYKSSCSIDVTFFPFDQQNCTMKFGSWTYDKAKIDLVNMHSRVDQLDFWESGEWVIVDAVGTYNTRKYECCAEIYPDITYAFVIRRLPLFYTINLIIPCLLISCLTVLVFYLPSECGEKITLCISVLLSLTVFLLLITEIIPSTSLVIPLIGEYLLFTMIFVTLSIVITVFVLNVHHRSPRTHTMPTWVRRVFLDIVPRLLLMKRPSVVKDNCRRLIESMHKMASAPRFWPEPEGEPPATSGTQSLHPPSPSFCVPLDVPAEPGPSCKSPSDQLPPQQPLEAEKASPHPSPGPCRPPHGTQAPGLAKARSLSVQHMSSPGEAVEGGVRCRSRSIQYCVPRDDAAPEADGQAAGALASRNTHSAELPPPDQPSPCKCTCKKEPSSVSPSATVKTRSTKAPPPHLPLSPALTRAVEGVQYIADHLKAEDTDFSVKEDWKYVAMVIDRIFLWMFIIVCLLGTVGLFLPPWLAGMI
T4 sequence (P17787 26-502): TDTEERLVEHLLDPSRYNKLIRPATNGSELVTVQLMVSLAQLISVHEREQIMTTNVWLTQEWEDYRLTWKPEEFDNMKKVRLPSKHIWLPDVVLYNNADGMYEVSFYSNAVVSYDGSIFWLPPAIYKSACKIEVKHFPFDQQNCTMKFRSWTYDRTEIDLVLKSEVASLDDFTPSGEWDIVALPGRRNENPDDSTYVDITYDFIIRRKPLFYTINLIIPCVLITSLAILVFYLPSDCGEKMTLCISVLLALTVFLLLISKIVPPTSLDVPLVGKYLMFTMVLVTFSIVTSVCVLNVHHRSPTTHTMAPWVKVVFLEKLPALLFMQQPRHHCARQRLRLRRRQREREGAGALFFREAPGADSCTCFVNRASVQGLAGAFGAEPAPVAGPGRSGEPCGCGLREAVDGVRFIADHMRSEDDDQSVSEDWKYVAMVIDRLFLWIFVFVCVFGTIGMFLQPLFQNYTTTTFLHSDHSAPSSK
As to the kind of experiment: Two-electrode voltage clamp, receptors expressed in Xenopus oocytes. It is filed as cell-based.

In series [7] the test system is male Swiss-Webster mice. Description: Cocaine interaction study (locomotor activity). It is filed as in vivo, mouse. The settings on record: 10 mg/kg ip plus cocaine 20 mg/kg, at 30 minutes.
Series [8] deals with Male Sprague-Dawley rats. Description: Mecamylamine blockade of nicotine-induced seizures. It counts as in vivo, rat.
The target in another series is T5, human α3β2 receptors (Homo sapiens, UniProt P17787+P32297).
T5 construct: expressed in transfected cells; host or cells: Xenopus laevis oocytes injected with cRNA
As to the kind of experiment: Two-electrode voltage clamp, receptors expressed in Xenopus oocytes. It counts as cell-based. The settings on record: β2-containing receptors.

Series [9] concerns the target hDAT (dopamine transporter) (Homo sapiens, UniProt Q01959). As to the kind of experiment: [125]RTI-55 binding, HEK293 cell membranes. The settings on record: HEK-hDAT membranes.
For series [10], the system named is male Swiss-Webster mice. As to the kind of experiment: Locomotor depression test. It is filed as in vivo, mouse.
The target in series [11] is T6, NMDA receptor subunits NR1 and NR2b (Homo sapiens, UniProt Q05586+Q13224).
T6 construct: expressed in transfected cells; host or cells: Xenopus oocytes
T6 sequence (Q13224 27-1484, other chains not shown): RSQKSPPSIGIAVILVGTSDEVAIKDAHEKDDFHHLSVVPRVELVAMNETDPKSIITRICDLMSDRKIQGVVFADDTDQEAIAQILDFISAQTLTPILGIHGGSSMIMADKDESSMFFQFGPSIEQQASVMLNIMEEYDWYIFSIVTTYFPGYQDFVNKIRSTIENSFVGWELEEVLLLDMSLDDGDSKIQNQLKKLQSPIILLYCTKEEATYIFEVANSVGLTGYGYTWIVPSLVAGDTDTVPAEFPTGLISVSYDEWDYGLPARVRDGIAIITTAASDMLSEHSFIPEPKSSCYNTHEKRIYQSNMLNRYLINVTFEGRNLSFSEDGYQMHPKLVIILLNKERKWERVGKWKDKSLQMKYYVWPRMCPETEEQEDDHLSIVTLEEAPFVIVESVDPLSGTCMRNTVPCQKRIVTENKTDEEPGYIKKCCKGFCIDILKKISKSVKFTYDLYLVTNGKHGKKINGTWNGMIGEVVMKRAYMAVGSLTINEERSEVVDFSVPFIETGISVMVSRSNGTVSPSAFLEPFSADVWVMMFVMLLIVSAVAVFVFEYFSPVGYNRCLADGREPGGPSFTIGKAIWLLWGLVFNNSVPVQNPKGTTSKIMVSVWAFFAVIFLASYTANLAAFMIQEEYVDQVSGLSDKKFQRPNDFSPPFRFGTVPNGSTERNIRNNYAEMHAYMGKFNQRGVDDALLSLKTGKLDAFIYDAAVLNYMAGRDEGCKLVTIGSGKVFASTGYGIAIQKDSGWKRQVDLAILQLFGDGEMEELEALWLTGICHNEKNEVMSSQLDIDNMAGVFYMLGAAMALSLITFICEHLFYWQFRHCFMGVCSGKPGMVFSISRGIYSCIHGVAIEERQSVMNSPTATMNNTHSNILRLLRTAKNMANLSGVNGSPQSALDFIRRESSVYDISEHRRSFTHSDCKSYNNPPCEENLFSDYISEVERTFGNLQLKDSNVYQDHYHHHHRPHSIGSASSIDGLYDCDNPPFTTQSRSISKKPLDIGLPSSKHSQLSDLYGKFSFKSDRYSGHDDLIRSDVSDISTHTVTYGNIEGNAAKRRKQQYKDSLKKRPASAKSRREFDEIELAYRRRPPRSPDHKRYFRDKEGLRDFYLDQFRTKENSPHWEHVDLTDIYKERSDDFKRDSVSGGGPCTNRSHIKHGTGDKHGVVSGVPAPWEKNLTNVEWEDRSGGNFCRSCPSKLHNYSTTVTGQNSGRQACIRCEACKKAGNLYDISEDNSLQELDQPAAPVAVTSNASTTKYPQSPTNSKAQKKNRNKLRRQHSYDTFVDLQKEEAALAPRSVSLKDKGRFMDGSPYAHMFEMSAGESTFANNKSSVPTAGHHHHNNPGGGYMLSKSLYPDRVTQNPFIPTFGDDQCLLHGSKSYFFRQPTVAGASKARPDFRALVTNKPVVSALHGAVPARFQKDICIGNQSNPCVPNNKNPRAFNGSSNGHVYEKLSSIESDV
As to the kind of experiment: Oocytes coexpressing NMDA receptor subunits. It is filed as cell-based. The settings on record: 100 μM. From the text: NR1 is ubiquitous in the brain and produces robust functional responses when coexpressed with the NR2b subunit and activated by glutamate and the coagonist glycine. NR2b in vivo is selectively present in the forebrain with high levels of expression in the cerebral cortex and hippocampus, as well as the septum, caudate putamen and olfactory bulb, making the combination of NR2b and NR1 relevant for both cognitive and motor functions in the CNS.

Series [12] relates to Male Sprague-Dawley rats. As to the kind of experiment: Effects of mecamylamine alone at high dose (seizures, spontaneous locomotor activity). It counts as in vivo, rat. The conditions noted are these: 10 mg/kg s.c.
The target of series [13] is T1, α1β1δε mouse muscle receptors. The conditions noted are these: stated as a finding in the discussion; cited from earlier work.
The subject of another series is nicotine receptors. Description: Oocyte recovery time course and agonist tests, receptor subtype not specified. It is filed as cell-based.
For the next series, the system named is rats. The settings on record: mecamylamine 0.1-1 mg/day, ip; cited from earlier work.

Read-outs that look alike come from different tables or passages of the source.

With `CN1[C@@H]2CC[C@H]1C[C@@H](OC(=O)C(CO)c1ccccc1)C2` (some centres unmarked) [atropine], in the series with mice (mouse, in vivo), the “effect against psychostimulant-induced stereotypy in naive animals” value is listed as “ineffective”.
As to `Clc1cccc(Cl)c1N=C1NCCN1` [clonidine], in the series with TS patients, the “success rate for motor and vocal tics” value is 40%.
Take `CO[C@H]1CC=C2CCN3CCC4=C(CC(=O)OC4)[C@]23C1` [dihydro-beta-erythroidine]: the “effect against psychostimulant-induced stereotypy in naive animals” value in the series with mice (systemic administration) is “ineffective”.
Regarding `CN[C@]1(C)[C@H]2CC[C@H](C2)C1(C)C` [exo-R-mecamylamine], in series [1] (2.2 Hz), the “stimulation-induced increases in plasma NE levels versus saline” value is listed as “significantly less” and the “change of plasma DA levels on sympathetic stimulation” value is listed as “significant increases in plasma DA levels”. The “affinity compared to cocaine” value in series [2] is listed as “lower than the affinity of cocaine”. Further, in [3], the “effect on muscle receptors” value is recorded as “very little effect” and the “inhibition of muscle receptors after a 5-min wash” value was “fully reversed”. Also, the “affinity compared to cocaine” value in series [4] was “lower than the affinity of cocaine”. On human α7 receptors, the “potency of inhibition, comparing the IC50 values across receptors” value is recorded as “least potent” and the “residual inhibition, compared across receptors” value is on record as “least”. Moreover, in series [5], the “effectiveness compared between isomers, particularly center distance and vertical activity” value is “generally more effective at lower doses”. Besides, the “subsequent control response to ACh 5 min after exposure (residual inhibition)” value at human α3β4 receptors is given as “marked decrease”. Also, the “fast phase of recovery, average duration” value at human α3β4 receptors (no further recovery afterwards) amounted to 12 min. Besides, in series [6], the “increases in heart rate (δ HR)” value was “significantly lowered the increases in heart rate” and the “stimulation-induced increases in MAP” value is on record as “completely abolished”. Besides, the “voltage dependence of inhibition / off rate” value at human α4β2 receptors (5 μM, −40 mV or 90 mV) is listed as “significant voltage effects”. The “residual inhibition, compared across receptors” value at human α4β2 receptors (β2-containing receptors) was “greatest”. Further, the “locomotion versus cocaine alone” value in the series on male Swiss-Webster mice [7] is listed as “significantly lower”. Also, the “duration and severity of seizure versus saline (FIG. 6C)” value with Male Sprague-Dawley rats [8] (0.1 mg/kg s.c.) is given as “did not differ from their saline comparison group”. In addition, the “residual inhibition, compared across receptors” value at human α3β2 receptors is reported as “greatest”. The “affinity compared to cocaine” value in [9] was “lower than the affinity of cocaine”. Besides, the stimulant effects result in the series with male Swiss-Webster mice [10] (10 mg/kg ip, last 30 minutes of testing) was “evident”. Besides, in the series with male Swiss-Webster mice [10] (ip, 20 min before testing, maximal depression is 0 counts in 30 minutes), the “dose producing one half of the maximal depressant activity” value was found to be 9.3 mg/kg.
In the case of `CN[C@@]1(C)[C@@H]2CC[C@@H](C2)C1(C)C` [exo-S-mecamylamine], in series [11], the “inhibition of response to 10 μM glutamate+10 μM glycine” value is given as “transient inhibition” and the “reversibility after a 5-min wash” value is on record as “reversible”. Also, in series [1] (2.2 Hz), the “stimulation-induced increases in plasma NE levels versus saline” value was “significantly decreased stimulation-evoked plasma NE increases”, the “stimulation-induced plasma EPI responses” value was “significant decrease” and the “change of plasma DA levels on sympathetic stimulation” value is recorded as “not”. Moreover, in series [1] (among the three forms), the “overall effectiveness on plasma CA and sympathetically-mediated cardiovascular responses” value is given as “the most effective in reducing plasma CA”. The “locomotor depressant effects compared to exo-R-mecamylamine” value with Male Sprague-Dawley rats [12] is listed as “significantly less locomotor depressant effects”. In series [6], the “increases in heart rate (δ HR)” value is “significantly lowered the increases in heart rate” and the “stimulation-induced increases in MAP” value is listed as “completely abolished”. The “inhibitory effect at nAChR muscle receptors compared to exo-R-mecamylamine” value in series [13] is listed as “less inhibitory effect”. Moreover, the initial inhibition result in the series on nicotine receptors (co-application of 10 μM and ACh at the control concentration) is reported as “greater than 50%”. Moreover, the “off-loading from some receptors compared to exo-R-mecamylamine” value in the series on nicotine receptors (recovery time course) is reported as “more slowly”. Besides, in the series on Male Sprague-Dawley rats [8] (0.1 mg/kg s.c.), the “duration and severity of seizure versus saline (FIG. 6C)” value is recorded as “significantly different from their saline comparison groups”; the “seizure latency versus saline comparison groups” value was “significantly longer seizure latency”. In addition, the “number of rats with nicotine-seizures compared to exo-R-mecamylamine” value in the series with Male Sprague-Dawley rats [8] (lowest dose 0.1 mg/kg) was “fewer rats had nicotine-seizures”.
On to `O=C(CCCN1CCC(O)(c2ccc(Cl)cc2)CC1)c1ccc(F)cc1` [haloperidol], for which, in the series with TS patients, the “cases in which effective” value is “about 70%”.
For the molecule `C[N+](C)(C)CCCCCC[N+](C)(C)C` [hexamethonium], in the series on rats, the “block of nicotine-induced locomotor hyperactivity and tail tremor” value is given as “not”.
